Measurements taken from patent US20240239790A1, “7-Morpholino-1,6-Naphthyridin-5-yl Derivatives and Pharmaceutical Compositions Thereof Useful as DNA-PK Inhibitor” (adMare Therapeutics Society, priority 2021, published 2024).
Where two headings read alike, the source gives them in different places.

Legend:
DNA-PK = molecular target: T1, DNA-PK (Homo sapiens, UniProt P78527); assay: DNA-PK Assay for Biochemical Enzymatic Inhibition (ADP Glo Kinase assay); conditions: DNA-PK enzyme, Table 1
T1 construct: purchased Invitrogen PR9107A
Procedure, shortened: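 Human DNA-PK (25 ng) preincubated 15 min with compounds (ten three-fold dilutions) in HEPES pH 7.5, MgCl2, KCl, calf thymus DNA buffer, then substrate 434.4 μM and ATP 64.4 μM (final) for 60 min at room temperature. ADP-Glo luminescence; percent inhibition fitted by four-parameter regression for IC50.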

[1] = test system: pDNA-PK induction in HCT116 tumour spheroids; assay: Multicellular tumour spheroid + radiation, pDNA-PK (ser2056) inhibition, immunohistochemical endpoint, HCT116; assay type: cell-based; conditions: Homo sapiens, HCT-116, 20 Gy, 2 hours following radiation, 20% O2
Procedure, shortened: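 HCT116 spheroids (~0.5 mm) in MEM/10% FBS, 20% O2, 37° C., pre-incubated 1 h with compound (10 or 5 μM down to 3.5 nM), irradiated 20 Gy, then 2 h further with compound. Cryosections immunostained for pDNA-PK ser2056; EC50 is concentration halving radiation-induced pDNA-PK.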

[2] = Hepatocyte Stability Assay, mouse hepatocytes; assay type: in vitro ADME; conditions: for hepatocyte CLint at 1 uM: male, CD-1, cryopreserved hepatocytes, pH 7.3, mouse hepatocytes 0.7 million cells per mL, 1 uM compound; for Hepatocyte Stability Mouse % rem. 120 min: mouse hepatocytes
Description: (§1) Cryopreserved mouse hepatocytes were obtained from a pool of 10 or more male CD-1 mice. Cryopreserved human hepatocytes were obtained from a pool of 10 or more donors of mixed gender. Final hepatocyte density was 0.7 million viable cells per mL and test compound concentration was 1 uM with a maximum of 0.01% DMSO. Cryopreserved hepatocytes were thawed, washed, and resuspended in Krebs-Heinslet buffer (pH 7.3). The reaction was initiated by adding the test compound into cell suspension and incubated for 0, […], 1, 1.5, and 2 h, respectively, at 37° C./5% C02. The reaction was stopped by adding acetonitrile into the incubation mixture. Samples were then mixed, transferred completely to another 96-well plate, and centrifuged. Supernatants were used for HPLC-MS/MS analysis. […] Peak areas corresponding to the test compound were recorded.

[3] = Hepatocyte Stability Assay, human hepatocytes; assay type: in vitro ADME; conditions: for hepatocyte CLint at 1 uM: both sexes, cryopreserved hepatocytes, pH 7.3, human hepatocytes 0.7 million cells per mL, 1 uM compound; for Hepatocyte Stability Human % rem. 120 min: human hepatocytes
Description: as §1

[4] = Example 9 Study 2, read-out: Spheroid Cell line: HCT116 Immunohistochemical endpoint pDNA-PK inhibition EC50
[5] = Spheroid, Cell Line: HCT115 (so in the source), Example 7, read-out: EC50, Immunohistochemical endpoint, pDNA-PK inhibition

SMILES	IC50 (DNA-PK)	EC50 [1, 4]	EC50 [1, 5]	hepatocyte CLint at 1 uM [2]	Hepatocyte Stability Mouse % rem. 120 min [2]	hepatocyte CLint at 1 uM [3]	Hepatocyte Stability Human % rem. 120 min [3]
O=c1[nH]c2cnc(N[C@H]3CC[C@@H](Oc4nc(N5CCOCC5)cc5ncccc45)CC3)nc2n1C1CCOCC1 [Compound 95, 2-(((1s,4s)-4-((7-Morpholino-1,6-naphthyridin-5-yl)oxy)cyclohexyl)amino)-9-(tetrahydro-2H-pyran-4-yl)-7,9-dihydro-8H-purin-8-one]	0.5 to 1 nM	10 to 500 nM	10 to 500 nM	> 8.2 µL/min/1e6 cells	F (% remaining = 25-50%)	> 8.2 µL/min/1e6 cells	F (% remaining = 25-50%)
Cn1c(=O)n(C2CCOCC2)c2nc(N[C@H]3CC[C@@H](Oc4nc(N5CCOCC5)cc5ncccc45)CC3)ncc21 [Compound 96, 7-Methyl-2-(((1s,4s)-4-((7-morpholino-1,6-naphthyridin-5-yl)oxy)cyclohexyl)amino)-9-(tetrahydro-2H-pyran-4-yl)-7,9-dihydro-8H-purin-8-one]	< 0.5 nM	500 to 1000 nM	500 to 1000 nM	< 8.2 µL/min/1e6 cells	G (% remaining = 50-75%)	> 8.2 µL/min/1e6 cells	F (% remaining = 25-50%)
CN(C)C(=O)Cn1c(=O)n(C2CCOCC2)c2nc(N[C@H]3CC[C@@H](Oc4nc(N5CCOCC5)cc5ncccc45)CC3)ncc21 [Compound 97, N,N-Dimethyl-2-(2-(((1s,4s)-4-((7-morpholino-1,6-naphthyridin-5-yl)oxy)cyclohexyl)amino)-8-oxo-9-(tetrahydro-2H-pyran-4-yl)-8,9-dihydro-7H-purin-7-yl)acetamide]	< 0.5 nM	10 to 500 nM	10 to 500 nM	< 8.2 µL/min/1e6 cells	H (% remaining = 75-100%)	< 8.2 µL/min/1e6 cells	G (% remaining = 50-75%)
O=C(Cn1c(=O)n(C2CCOCC2)c2nc(N[C@H]3CC[C@@H](Oc4nc(N5CCOCC5)cc5ncccc45)CC3)ncc21)N1CCOCC1 [Compound 98, 2-(((1s,4s)-4-((7-Morpholino-1,6-naphthyridin-5-yl)oxy)cyclohexyl)amino)-7-(2-morpholino-2-oxoethyl)-9-(tetrahydro-2H-pyran-4-yl)-7,9-dihydro-8H-purin-8-one]	< 0.5 nM	10 to 500 nM	10 to 500 nM	< 8.2 µL/min/1e6 cells	G (% remaining = 50-75%)	> 8.2 µL/min/1e6 cells	F (% remaining = 25-50%)
O=C(Cn1c(=O)n(C2CCOCC2)c2nc(N[C@H]3CC[C@@H](Oc4nc(N5CCOCC5)cc5ncccc45)CC3)ncc21)N1CCC1 [Compound 99, 7-(2-(Azetidin-1-yl)-2-oxoethyl)-2-(((1s,4s)-4-((7-morpholino-1,6-naphthyridin-5-yl)oxy)cyclohexyl)amino)-9-(tetrahydro-2H-pyran-4-yl)-7,9-dihydro-8H-purin-8-one]	< 0.5 nM	10 to 500 nM	10 to 500 nM	< 8.2 µL/min/1e6 cells	G (% remaining = 50-75%)	> 8.2 µL/min/1e6 cells	F (% remaining = 25-50%)
Cn1c(=O)[nH]c2cnc(N[C@H]3CC[C@@H](Oc4nc(N5CCOCC5)cc5ncccc45)CC3)nc21 [Compound 100, 9-Methyl-2-(((1s,4s)-4-((7-morpholino-1,6-naphthyridin-5-yl)oxy)cyclohexyl)amino)-7,9-dihydro-8H-purin-8-one]	< 0.5 nM	10 to 500 nM	10 to 500 nM	> 8.2 µL/min/1e6 cells	E (% remaining = 0-25%)	> 8.2 µL/min/1e6 cells	E (% remaining = 0-25%)
Cn1c(=O)n(C)c2nc(N[C@H]3CC[C@@H](Oc4nc(N5CCOCC5)cc5ncccc45)CC3)ncc21 [Compound 101, 7,9-Dimethyl-2-(((1s,4s)-4-((7-morpholino-1,6-naphthyridin-5-yl)oxy)cyclohexyl)amino)-7,9-dihydro-8H-purin-8-one]	< 0.5 nM	10 to 500 nM	10 to 500 nM	> 8.2 µL/min/1e6 cells	F (% remaining = 25-50%)	> 8.2 µL/min/1e6 cells	F (% remaining = 25-50%)
CN(C)C(=O)Cn1c(=O)n(C)c2nc(N[C@H]3CC[C@@H](Oc4nc(N5CCOCC5)cc5ncccc45)CC3)ncc21 [Compound 102, N,N-Dimethyl-2-(9-methyl-2-(((1s,4s)-4-((7-morpholino-1,6-naphthyridin-5-yl)oxy)cyclohexyl)amino)-8-oxo-8,9-dihydro-7H-purin-7-yl)acetamide]	< 0.5 nM	10 to 500 nM	10 to 500 nM	< 8.2 µL/min/1e6 cells	H (% remaining = 75-100%)	< 8.2 µL/min/1e6 cells	G (% remaining = 50-75%)
